Measurements published in patent publication US20100267561A1, “HERBICIDAL PYRIDAZINONE DERIVATIVES” (priority 2007, published 2010).

Legend:
Type in all cases: in vivo
[1] = test system: bermudagrass (Cynodon dactylon); assay: Test E pre-/postemergence plant response; conditions: scale 0 to 100
Outline: (§1)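 Formulated in a non-phytotoxic solvent mixture containing surfactant, compound was applied to soil at planting or sprayed on emerged plants at the 1- to 4-leaf stage. Visual comparison with controls followed 14 to 21 days in the greenhouse; 0 = no effect, 100 = complete control.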

[2] = test system: purple nutsedge (Cyperus rotundus); assay: Test E pre-/postemergence plant response; conditions: scale 0 to 100
Outline: as §1

[3] = test system: large crabgrass (Digitaria sanguinalis); assay: Test E pre-/postemergence plant response; conditions: scale 0 to 100
Outline: as §1

[4] = test system: annual bluegrass (Poa annua); assay: Test E pre-/postemergence plant response; conditions: scale 0 to 100
Outline: as §1

[5] = test system: dallisgrass (Paspalum dilatatum); assay: Test E pre-/postemergence plant response; conditions: scale 0 to 100
Outline: as §1

[6] = test system: guineagrass (Panicum maximum); assay: Test E pre-/postemergence plant response; conditions: scale 0 to 100
Outline: as §1

[7] = test system: common mallow (Malva sylvestris); assay: Test E pre-/postemergence plant response; conditions: scale 0 to 100
Outline: as §1

[8] = test system: common purslane (Portulaca oleracea); assay: Test E pre-/postemergence plant response; conditions: scale 0 to 100
Outline: as §1

[9] = test system: blackgrass (Alopecurus myosuroides); assay: Test A pre-/postemergence plant response
Outline: (§2)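 Soil: loam blended with sand. Formulation: non-phytotoxic solvent mixture plus surfactant, applied as preemergence directed soil spray and as postemergence spray. Scoring: visual, 0 no effect to 100 complete control, roughly 10 days post-treatment in greenhouse.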

[10] = test system: canarygrass (Phalaris minor); assay: Test A pre-/postemergence plant response
Outline: as §2

[11] = Postemergence, 31 g ai/ha, 0 to 100 scale (0 no effect, 100 complete control)
[12] = Postemergence, 125 g ai/ha, 0 to 100 scale, 0 no effect, 100 complete control
[13] = Preemergence, 31 g ai/ha, 0 to 100 scale, 0 is no effect, 100 is complete control
[14] = Preemergence, 125 g ai/ha, 0 to 100 scale (0 no effect, 100 complete control)

Structure (SMILES): CCc1cc(-c2ccc(C(F)(F)F)cc2)nn1-c1c(O)cnn(C)c1=O [Compound 11, 4-[5-ethyl-3-[4-(trifluoromethyl)phenyl]-1H-pyrazol-1-yl]-5-hydroxy-2-methyl-3(2H)-pyridazinone]
- Plant response rating, Bermudagrass ([1]; 4 g ai/ha, Postemergence): 10
- Plant response rating, Bermudagrass ([1]; 8 g ai/ha, Preemergence): 25
- Plant response rating, Bermudagrass ([1]; 16 g ai/ha, Preemergence): 40
- Plant response rating, Bermudagrass ([1]; 31 g ai/ha, Preemergence): 100
- Plant response rating, Bermudagrass ([1]; Postemergence, 8 g ai/ha): 35
- Plant response rating, Bermudagrass ([1]; Postemergence, 16 g ai/ha): 80
- Plant response rating, Bermudagrass ([1]; Postemergence, 31 g ai/ha): 95
- Plant response rating, Bermudagrass ([1]; Preemergence, 4 g ai/ha): 15
- Plant response rating, Nutsedge, Purple ([2]; 4 g ai/ha, Postemergence): 0
- Plant response rating, Nutsedge, Purple ([2]; 16 g ai/ha, Preemergence): 0
- Plant response rating, Nutsedge, Purple ([2]; 31 g ai/ha, Preemergence): 0
- Plant response rating, Nutsedge, Purple ([2]; Postemergence, 8 g ai/ha): 0
- Plant response rating, Crabgrass, Large ([3]; 4 g ai/ha, Postemergence): 60
- Plant response rating, Crabgrass, Large ([3]; 8 g ai/ha, Preemergence): 0
- Plant response rating, Crabgrass, Large ([3]; 16 g ai/ha, Preemergence): 30
- Plant response rating, Crabgrass, Large ([3]; 31 g ai/ha, Preemergence): 100
- Plant response rating, Crabgrass, Large ([3]; Postemergence, 8 g ai/ha): 70
- Plant response rating, Crabgrass, Large ([3]; Postemergence, 16 g ai/ha): 95
- Plant response rating, Crabgrass, Large ([3]; Postemergence, 31 g ai/ha): 100
- Plant response rating, Crabgrass, Large ([3]; Preemergence, 4 g ai/ha): 0
- Plant response rating, Bluegrass ([4]; 4 g ai/ha, Postemergence): 0
- Plant response rating, Bluegrass ([4]; 8 g ai/ha, Preemergence): 0
- Plant response rating, Bluegrass ([4]; 16 g ai/ha, Preemergence): 0
- Plant response rating, Bluegrass ([4]; 31 g ai/ha, Preemergence): 0
- Plant response rating, Bluegrass ([4]; Postemergence, 8 g ai/ha): 0
- Plant response rating, Bluegrass ([4]; Postemergence, 16 g ai/ha): 0
- Plant response rating, Bluegrass ([4]; Postemergence, 31 g ai/ha): 0
- Plant response rating, Bluegrass ([4]; Preemergence, 4 g ai/ha): 0
- Plant response rating, Dallisgrass ([5]; 4 g ai/ha, Postemergence): 60
- Plant response rating, Dallisgrass ([5]; 8 g ai/ha, Preemergence): 20
- Plant response rating, Dallisgrass ([5]; 16 g ai/ha, Preemergence): 35
- Plant response rating, Dallisgrass ([5]; 31 g ai/ha, Preemergence): 85
- Plant response rating, Dallisgrass ([5]; Postemergence, 8 g ai/ha): 75
- Plant response rating, Dallisgrass ([5]; Postemergence, 16 g ai/ha): 90
- Plant response rating, Dallisgrass ([5]; Postemergence, 31 g ai/ha): 90
- Plant response rating, Dallisgrass ([5]; Preemergence, 4 g ai/ha): 10
- Plant response rating, Guineagrass ([6]; 4 g ai/ha, Postemergence): 90
- Plant response rating, Guineagrass ([6]; 16 g ai/ha, Preemergence): 98
- Plant response rating, Guineagrass ([6]; 31 g ai/ha, Preemergence): 98
- Plant response rating, Guineagrass ([6]; Postemergence, 8 g ai/ha): 95
- Plant response rating, Guineagrass ([6]; Postemergence, 16 g ai/ha): 98
- Plant response rating, Guineagrass ([6]; Postemergence, 31 g ai/ha): 98
- Plant response rating, Guineagrass ([6]; Preemergence, 4 g ai/ha): 0
- Plant response rating, Mallow ([7]; 4 g ai/ha, Postemergence): 0
- Plant response rating, Mallow ([7]; Postemergence, 8 g ai/ha): 0
- Plant response rating, Mallow ([7]; Postemergence, 16 g ai/ha): 0
- Plant response rating, Mallow ([7]; Postemergence, 31 g ai/ha): 0
- Plant response rating, Purslane ([8]; 4 g ai/ha, Postemergence): 0
- Plant response rating, Purslane ([8]; 16 g ai/ha, Preemergence): 0
- Plant response rating, Purslane ([8]; 31 g ai/ha, Preemergence): 0
- Plant response rating, Purslane ([8]; Postemergence, 8 g ai/ha): 0
- Plant response rating, Purslane ([8]; Postemergence, 16 g ai/ha): 0
- Plant response rating, Purslane ([8]; Postemergence, 31 g ai/ha): 0
- Plant response rating, Purslane ([8]; Preemergence, 4 g ai/ha): 0

Structure (SMILES): CCc1cc(-c2ccc(C(F)(F)F)cc2)nn1-c1c(OS(C)(=O)=O)cnn(C)c1=O [Compound 19]
- Plant response rating, Bermudagrass ([1]; 4 g ai/ha, Postemergence): 15
- Plant response rating, Bermudagrass ([1]; 8 g ai/ha, Preemergence): 60
- Plant response rating, Bermudagrass ([1]; 16 g ai/ha, Preemergence): 95
- Plant response rating, Bermudagrass ([1]; 31 g ai/ha, Preemergence): 100
- Plant response rating, Bermudagrass ([1]; Postemergence, 8 g ai/ha): 35
- Plant response rating, Bermudagrass ([1]; Postemergence, 16 g ai/ha): 35
- Plant response rating, Bermudagrass ([1]; Postemergence, 31 g ai/ha): 80
- Plant response rating, Bermudagrass ([1]; Preemergence, 4 g ai/ha): 25
- Plant response rating, Nutsedge, Purple ([2]; 4 g ai/ha, Postemergence): 0
- Plant response rating, Nutsedge, Purple ([2]; Postemergence, 16 g ai/ha): 0
- Plant response rating, Nutsedge, Purple ([2]; Preemergence, 4 g ai/ha): 0
- Plant response rating, Crabgrass, Large ([3]; 4 g ai/ha, Postemergence): 30
- Plant response rating, Crabgrass, Large ([3]; 8 g ai/ha, Preemergence): 15
- Plant response rating, Crabgrass, Large ([3]; 16 g ai/ha, Preemergence): 95
- Plant response rating, Crabgrass, Large ([3]; 31 g ai/ha, Preemergence): 100
- Plant response rating, Crabgrass, Large ([3]; Postemergence, 8 g ai/ha): 40
- Plant response rating, Crabgrass, Large ([3]; Postemergence, 16 g ai/ha): 60
- Plant response rating, Crabgrass, Large ([3]; Postemergence, 31 g ai/ha): 80
- Plant response rating, Crabgrass, Large ([3]; Preemergence, 4 g ai/ha): 0
- Plant response rating, Bluegrass ([4]; 4 g ai/ha, Postemergence): 0
- Plant response rating, Bluegrass ([4]; 8 g ai/ha, Preemergence): 0
- Plant response rating, Bluegrass ([4]; 16 g ai/ha, Preemergence): 0
- Plant response rating, Bluegrass ([4]; 31 g ai/ha, Preemergence): 0
- Plant response rating, Bluegrass ([4]; Postemergence, 8 g ai/ha): 0
- Plant response rating, Bluegrass ([4]; Postemergence, 16 g ai/ha): 0
- Plant response rating, Bluegrass ([4]; Postemergence, 31 g ai/ha): 0
- Plant response rating, Bluegrass ([4]; Preemergence, 4 g ai/ha): 0
- Plant response rating, Dallisgrass ([5]; 4 g ai/ha, Postemergence): 0
- Plant response rating, Dallisgrass ([5]; 8 g ai/ha, Preemergence): 40
- Plant response rating, Dallisgrass ([5]; 16 g ai/ha, Preemergence): 90
- Plant response rating, Dallisgrass ([5]; 31 g ai/ha, Preemergence): 95
- Plant response rating, Dallisgrass ([5]; Postemergence, 8 g ai/ha): 30
- Plant response rating, Dallisgrass ([5]; Postemergence, 16 g ai/ha): 60
- Plant response rating, Dallisgrass ([5]; Postemergence, 31 g ai/ha): 75
- Plant response rating, Dallisgrass ([5]; Preemergence, 4 g ai/ha): 20
- Plant response rating, Guineagrass ([6]; 4 g ai/ha, Postemergence): 80
- Plant response rating, Guineagrass ([6]; 16 g ai/ha, Preemergence): 100
- Plant response rating, Guineagrass ([6]; 31 g ai/ha, Preemergence): 100
- Plant response rating, Guineagrass ([6]; Postemergence, 8 g ai/ha): 90
- Plant response rating, Guineagrass ([6]; Postemergence, 16 g ai/ha): 95
- Plant response rating, Guineagrass ([6]; Postemergence, 31 g ai/ha): 98
- Plant response rating, Guineagrass ([6]; Preemergence, 4 g ai/ha): 60
- Plant response rating, Mallow ([7]; 4 g ai/ha, Postemergence): 0
- Plant response rating, Mallow ([7]; 16 g ai/ha, Preemergence): 0
- Plant response rating, Mallow ([7]; 31 g ai/ha, Preemergence): 0
- Plant response rating, Mallow ([7]; Postemergence, 8 g ai/ha): 0
- Plant response rating, Mallow ([7]; Postemergence, 16 g ai/ha): 0
- Plant response rating, Mallow ([7]; Postemergence, 31 g ai/ha): 0
- Plant response rating, Purslane ([8]; 4 g ai/ha, Postemergence): 0
- Plant response rating, Purslane ([8]; 16 g ai/ha, Preemergence): 0
- Plant response rating, Purslane ([8]; 31 g ai/ha, Preemergence): 0
- Plant response rating, Purslane ([8]; Postemergence, 8 g ai/ha): 0
- Plant response rating, Purslane ([8]; Postemergence, 16 g ai/ha): 0
- Plant response rating, Purslane ([8]; Postemergence, 31 g ai/ha): 0
- Plant response rating, Purslane ([8]; Preemergence, 4 g ai/ha): 0

Structure (SMILES): COCc1cc(-c2ccc(Br)cc2)nn1-c1c(O)cnn(C)c1=O [Compound 68]
- Plant response rating, Blackgrass [9, 11]: 0
- Plant response rating, Blackgrass [9, 12]: 80
- Plant response rating, Blackgrass [9, 13]: 0
- Plant response rating, Blackgrass [9, 14]: 50
- Plant response rating, Canarygrass [10, 11]: 0
- Plant response rating, Canarygrass [10, 12]: 40
- Plant response rating, Canarygrass [10, 13]: 0
- Plant response rating, Canarygrass [10, 14]: 20

Structure (SMILES): Cc1cc(-c2ccc(Cl)cc2)nn1-c1c(OC(=S)N(C)C)cnn(C)c1=O [Compound 69]
- Plant response rating, Blackgrass [9, 11]: 10
- Plant response rating, Blackgrass [9, 12]: 60
- Plant response rating, Blackgrass [9, 13]: 20
- Plant response rating, Blackgrass [9, 14]: 40
- Plant response rating, Canarygrass [10, 11]: 0
- Plant response rating, Canarygrass [10, 12]: 80
- Plant response rating, Canarygrass [10, 14]: 80
